The record followed here is patent US20160082082A1, “USE OF THERAPEUTIC PEPTIDES FOR THE TREATMENT AND PREVENTION OF CANCER” (ARIZONA CANCER THERAPEUTICS L.L.C., priority 2008, published 2016).

Experiment [1] concerns BT-20 breast cancer cells. The experiment in a line: Cellular uptake of labelled peptide (fluorescence microscopy). In kind it is cell-based, human. The settings on record: cells pulsed in vitro. The procedure: FIGS. 1A-1F. […] FIG. 1A) Human MUC1's cytoplasmic amino acid sequence (MUC1CT; SEQ ID NO: 15), which includes an EGFR/src phosphorylation site (underline; SEQ ID NO: 15, residues 46-49) and β-catenin binding site (double underline; SEQ ID NO: 15, residues 50-59). […] The cells were treated with EGF (30′ EGF, 10 ng/ml) or without (-S, no serum) and protein lysates were generated and separated on an SDS-PAGE. The lysates were immunoblotted (IB) for EGFR (1005) and β-actin (AC-15) FIG. 1D-F MDA-MB-468 cells were treated with EGF (10 ng/ml) and either (FIG. 1D) hPMIP (10 μM), (FIG. 1E) PTD4 (10 μM) or (FIG. 1F) PBS overnight. The cells were fixed, probed for MUC1 (Texas Red) and β-catenin (FITC) and examined on a confocal microscope (400×). Co-localization (arrows) analysis was performed using Image Pro Plus and is designated with white pixels.
BT20 cells were treated for 2 hours with 200 μM hPMIP tagged with FITC and fixed in 4% Paraformaldhyde/PBS. Fixed cells were washed 3 times with 0.02% NaN3/PBS and incubated with Slowfade Gold antifade reagent with DAPI (Invitrogen). Cells were visualized with a fluorescence DMLB Leica compound microscope. […]

Experiment [2] has as its system MDA-MB-231 breast cancer cells implanted into the mammary fat pad of scid mice. The experiment in a line: Human breast tumor xenograft in mammary fat pad. The format is in vivo. The procedure:
FIGS. 3A-3E. […] FIG. 3A) MDA-MB-231 cells in Matrigel were injected into the mammary fat pad of scid mice, and daily peptide treatment (50 μg/g body weight of hPMIP or PTD4) began when tumors reached 100 mm^3 (PTD4 and hPMIP n=8) and primary tumor growth was assessed (*, p=0.028). FIG. 3B) After the end of treatment, the amount of time the tumors took to progress to 1000 mm^3 was measured (ANOVA, **, p=0.03). […] FIG. 3D) MDA-MB-231 cells in Matrigel were injected into the mammary fat pad of scid mice, and daily peptide treatment (50 μg/g of hPMIP or PTD4) began when tumors reached 500 mm^3 (PTD4 n=4 and hPMIP n=6) and primary tumor growth was assessed. FIG. 3E) Following 21 days of treatment the tumors were resected immediately and tumor regrowth at the primary site and spread to secondary mammary glands was monitored (PTD4 n=4 and hPMIP n=4). Error bars represent standard error.
Immunocompromised (severe combined immune deficiency (scid)) mice (Taconic, Rockville, Md.) were tested for the presence of serum IgG and found to be <20 μg/ml IgG. Female mice (four to six weeks old) were injected with 1×10^7 cells embedded in Matri-gel (BD Biosciences) into the mammary fat pad and allowed to grow to either 100 mm^3 or 500 mm^3, based on the formula a^2×b/2 where a is the smaller diameter and b is the larger diameter. Mice were injected i.p. with 50 μg/g body weight of either PMIP or PTD4 control peptide for 21 days and measured with calipers every two days. Either at the end of 21 days, or after the tumor had reached 800 mm^3, tumors were resected by injecting the mice with buprenorphine (2.5 mg/kg body weight, Infusion Solutions, Totowa, N.J.) at least one hour prior to resection and anesthetizing the mice with isoflurane (Abbott, Abbott Park, Ill.). Following surgery, mice were treated with buprenorphine (2.5 mg/kg body weight) 8 and 16 hrs post-surgery. Animals were then followed for 10 days to examine regrowth at the primary tumor site or at secondary mammary glands, then sacrificed.
For orientation: In xenograft studies the graft and the host belong to different species.

In experiment [3] the test system is MMTV-pyV mT induced mammary gland tumors. The experiment in a line: MMTV-pyV mT transgenic mouse spontaneous breast cancer. The format is in vivo, mice. The procedure: FIGS. 4A-4D. […] FIG. 4A) MMTV-pyV mT transgenic mice were injected with FITC-msPMIP (50 μg/g body weight), sacrificed four hours later and various tissues visualized using fluorescence microscopy. FITC-msPMIP localization in the mouse mammary gland tumors is shown (2.5× and 8×). FIG. 4B) Mammary gland tumors (>0.5 cm in diameter) were allowed to develop and mice were injected daily (50 μg/g body weight, 21 day treatment, intraperitoneal (i.p.) injection, 1× per day) with either msPMIP (7 mice) or PTD4 (6 mice). At the end of treatment, animals were sacrificed and proteins lysates made of the tumors for later analysis. […] Numbers above data are number of tumors that meet the size criteria over the total potential tumor sites.
MMTV-pyV mT mice (33), obtained from Jackson Laboratories) entered into study upon the development of tumors that measured ≧0.5 cm in at least one diameter. Only mice greater than seven weeks of age were included in the study and mice that developed fluid cysts were excluded. Animals were injected i.p. with 50 μg/g body weight of msPMIP or PTD4 once daily for 21 days. Each of ten mammary glands were measured using calipers every two days, and measurements were used to determine tumor volume based on the formula a^2×b/2, with a being the smaller diameter and b being the larger diameter. After treatment for 21 days, mice were sacrificed by CO2 inhalation and tissues resected. Several msPMIP treated mice were injected with FITC-msPMIP (50 μg/g body weight) one or four hours prior to sacrifice and intact tissues were visualized using a fluorescence MZFLIII Leica dissection microscope.

A further experiment has as its system MDA-MB-231 cells. The experiment in a line: Invasion assay (Transwell into Type I collagen). In kind it is cell-based, human. The settings on record: MDA-MB-231, 50 μM, vs PTD4 or PBS. Here is the method: FIGS. 2A-2C. […] FIG. 2A) BT20 cells were cultured in a 96-well dish (10^4 cells/well) and treated daily for 6 days with either hPMIP (10 μM) or PTD4 (10 μM) in RPMI 1640/1% FBS. An MTT assay was performed to quantify cell number after treatment was complete (***, p<0.0001). Error bars represent standard error. FIG. 2B) MDA-MB-231 and FIG. 2C) BT20 cell lines were treated with either hPMIP (50 μM), PTD4 (50 μM), or PBS overnight, labeled with Calcein AM, allowed to invade through a Transwell (8.0 μM) insert into a Type I collagen gel, and the invaded cells were fluorescently measured. (ANOVA, *p<0.0001, **p<0.0001, #p=0.007, ##p=0.007). Error bars represent standard deviation.
Collagen matrix (0.9 mg/ml Type I Rat tail collagen (BD Biosciences, Billerica, Mass.), 83.0% (v/v) M-199 medium (Life Technologies), and 0.18% NaHCO3 (Fisher, Hampton, N.H.)) was poured into a 24 well plate. Prior to collagen polymerization a […] pore transwell insert (Corning Inc., Corning, N.Y.) was placed on top of the matrix. The polymerized collagen was rehydrated using a chemoattractant (20% FBS/RPMI 1640 with […] EGF). MDA-MB-231 cells were treated with 50 μM of peptide in serum free RPMI 1640 media for 17 hours. […] The number of fluorescently labeled cells that had invaded into the collagen were measured using a Molecular Devices spectrophotometer (Ex:485, Em:538, and Cutoff:530).

In experiment [4] the test system is human breast cancer cell line MDA-MB-231. The experiment in a line: Annexin V and cell number quantification on plastic. The format is cell-based. Particulars: MDA-MB-231 grown on plastic. An excerpt: These cells were chosen as they represent models of high and low MUC1 expression, respectively (data not shown).
The subject of experiment [5] is MMTV-pyV mT induced mammary gland tumors. Description: MMTV-pyV mT transgenic mouse spontaneous breast cancer. The format is in vivo. Particulars: human peptide in MMTV-pyV mT mice.

Values joined by “and” are separate entries in the source; they are usually repeats but may differ in a detail not shown here. Equal entries are not always repeated. Where no end group is shown, it is not given here.

As for “FITC-hPMIP: FITC-labeled PTD4 conjugated to MIP peptides (human) (YARAAARQARAPYEKVSAGNGGSSLS; not fully specified (N-terminus); also: FITC label, place not given here)”, the “presence and retention of fluorescent peptide in cells” value in experiment [1] was “found to contain the fluorescent peptide and it was retained over time”.
On to “PTD4: PTD4 protein transduction domain, SEQ ID NO: 16, used as control peptide (YARAAARQARA; synthetic protein translocation domain)”, for which, in experiment [2] (treatment begun at 500 mm^3, 50 μg/g i.p. 21 days, resection, 10 days follow-up without drug), the “average tumor volume of regrowth / secondary mammary gland tumors after resection” value came to 760 mm^3. Moreover, in experiment [3] (50 μg/g i.p. daily, 21 days), the “number of tumors sized 100-300 mm^3, end vs beginning of treatment” value was “doubled”; the tumor growth rate turned out to be 69 mm^3/day; the “tumors larger than 100 mm^3 (of possible tumor sites)” value is 47%; the “tumors that grew larger than 500 mm^3 by the end of the study” value is recorded as 13%. Moreover, in experiment [3] (50 μg/g i.p. once daily, over 21 days of treatment), the “total tumor growth for all tumor sites” value was 589.5%±283.6% and ~590%. Besides, the “number of established tumors that completely regressed” value in experiment [3] (21 day treatment, PTD4 n=60, PMIP n=70 tumor sites) is recorded as “none”.
Regarding “hPMIP: human PMIP, SEQ ID NO: 17: MUC1 mimetic 15 amino acid peptide in tandem with PTD4 protein transduction domain (YARAAARQARAPYEKVSAGNGGSSLS; fusion protein)”, in the experiment with MDA-MB-231 cells, the “invasion into Type I collagen matrix” value is reported as “strongly inhibited cellular invasion”. Also, in experiment [4], the “effect on apoptosis (Annexin V)” value is “no detectable effects” and the “effect on cell growth (cell number)” value is “no detectable effects”. Further, the “primary tumor size vs control” value in experiment [2] (treatment begun at 100 mm^3, 50 μg/g i.p. 21 days, p=0.028) is “significant decrease in tumor size”. For the same substance, the “length of time to reach resection size of 800 mm^3” value in experiment [2] (treatment begun at 100 mm^3, after end of treatment, p=0.03) is recorded as “significant increase in the length of time”. Besides, in experiment [2] (treatment begun at 100 mm^3, resection at 800 mm^3), the “tumor regrowth and spread 10 days after resection” value is reported as “substantially decreased”. The “number of regrowth and secondary mammary gland tumors” value in experiment [2] (treatment begun at 500 mm^3, after resection) is “found in equal number for both treatment groups”. Besides, the “effect on tumor growth” value in experiment [5] is listed as “no effect on tumor growth”.
